Here are results for 28 compounds from patent publication US20070027088A1 (priority 2003, published 2007).

“Also recorded” adds a separate entry of the source. Where a SMILES comes first, the peptide text is derived from it. [ ]: non-standard residue; d: D form.

In assay [1] the test system is human PBMCs stimulated with SEB. The format is cell-based.
In assay [2] the test system is superantigen shock in Balb/c mice (SEB). As to conditions: mouse, in vivo; for % SURVIVAL / SURVIVORS/INJECTED: ip.
Assay [3] has as its system IL-2 RNA. As to conditions: cited from earlier work.
Assay [4] concerns bacterial toxins. As to conditions: mouse, in vivo; cited from earlier work.

Regarding `CSCC[C@@H](NC(=O)[C@H](N)CS)C(=O)N[C@H](Cc1ccc(O)cc1)C(=O)O` [CMY*] (H-[dC]-[dM]-[dY]-OH), in assay [1], the “inhibition of SEB proliferation (words)” value is recorded as “significantly greater inhibitory effects than the control 12-mer peptide or their respective L-conformation peptides; also recorded: most effective in blocking superantigen activity”. For the same compound, in assay [2], the “protection against superantigen shock” value is listed as “provided some protection against superantigen-induced shock”, the “% SURVIVAL” value is given as 33% and the SURVIVORS/INJECTED is recorded as 2/6. With `CSCC[C@@H](NC(=O)[C@H](N)Cc1ccc(O)cc1)C(=O)N[C@H](CS)C(=O)O` [YMC*] (H-[dY]-[dM]-[dC]-OH), in assay [1], the “inhibition of SEB proliferation (words)” value is reported as “significantly greater inhibitory effects than the control 12-mer peptide or their respective L-conformation peptides; also recorded: most effective in blocking superantigen activity”. Besides, in assay [2], the “protection against superantigen shock” value is listed as “quite effective in protecting mice against shock”, the “% SURVIVAL” value is on record as 83% and the SURVIVORS/INJECTED is given as 5/6. AAA [reference compound]: the “inhibition of blastogenesis” value in assay [1] is listed as “not effective”. As for AMY, the “inhibition of blastogenesis” value in assay [1] is recorded as “effective in inhibiting blastogenesis of the toxins”. Consider AMYGGVTEHEGN [SEQ ID NO: 8], for which the “inhibitory activity of alanine substitution constructs” value (shortened to “inhibitory activity”) in assay [1] was “significant loss of the inhibitory properties”. Turning to CAY, the “inhibition of blastogenesis” value in assay [1] is recorded as “effective in inhibiting blastogenesis of the toxins”.

In the case of CAYGGVTEHEGN [SEQ ID NO: 9], in assay [1], the “inhibitory activity” value is listed as “significant loss of the inhibitory properties”. For CMAGGVTEHEGN [SEQ ID NO: 10], in assay [1], the “inhibitory activity” value is given as “significant loss of the inhibitory properties; also recorded: complete loss of the inhibitory properties”. As for CMYG, the “inhibition of proliferative effects of the toxin” value in assay [1] is recorded as “comparatively little effect in the inhibition of toxin regardless of concentration”. As for CMYGGV, the “loss of inhibiting activity compared with original 12-mer peptide” value in assay [1] came out at 52%. Regarding CMYGGVAEHEGN [A at 7], the “inhibitory activity” value in assay [1] is given as “better inhibition of biological activity than the original 12-mer peptide”. For the compound CMYGGVTAHEGN [A at 8], in assay [1], the “inhibitory activity” value is on record as “better inhibition of biological activity than the original 12-mer peptide”. On to CMYGGVTEHE, for which, in assay [1], the “loss of inhibiting activity compared with original 12-mer peptide” value is on record as 54%. The same measure, in the same setting: then CMYGGVTEHEG, with 18%. For the compound CMYGK, in assay [1], the “inhibition of SEB proliferation (words)” value was “comparable to that of the original 12 amino acid peptide; also recorded: more effectively than the 12-mer peptide 6343”.

Regarding CMYKK, the “inhibition of SEB proliferation (words)” value in assay [1] was “comparable and at high concentrations better than the original 12-mer peptide; also recorded: more effectively than the 12-mer peptide 6343”. CYM: the “inhibition of blastogenesis” value in assay [1] is recorded as “effective in inhibiting blastogenesis of the toxins”. On to “EHEGNCMYGGVT [6343S, reference compound]”, for which, in assay [1], the “inhibition of SEB proliferation” value is reported as “less than 20%” and the “inhibition of SEB proliferation (words)” value was “minimal effect on bacterial toxin proliferation”.

As to MYC, in assay [1], the “inhibition of blastogenesis” value is “effective in inhibiting blastogenesis of the toxins”.

Turning to MYGGVTEHEGN, the “loss of inhibiting activity compared with original 12-mer peptide” value in assay [1] is “approximately 30%”.

For the compound TEHEGN, the “loss of inhibiting activity compared with original 12-mer peptide” value in assay [1] was found to be 48%. Turning to TTT [reference compound], the “inhibition of blastogenesis” value in assay [1] is listed as “not effective”. As to YGGVTEHEGN, the “loss of inhibiting activity compared with original 12-mer peptide” value in assay [1] is given as “approximately 50%”. For the compound YNKKKATVQELD, the “inhibition of expression of IL-2 RNA” value in assay [3] is recorded as 18-40 fold. For the same compound, the “rescue from lethal effects of bacterial toxins” value in assay [4] is listed as “rescues mice from the lethal effects of bacterial toxins”. On to YYY [reference compound], for which the “inhibition of blastogenesis” value in assay [1] is “not inhibitory”. As for acetylated CMY, the “inhibition of SEB proliferation (words)” value in assay [1] was “did not significantly change the inhibitory effects of CMY”. Regarding cmy-NH2, the “inhibition of blastogenesis” value in assay [1] is “effective in inhibiting blastogenesis of the toxins”. Regarding cmy-OH, the “inhibition of blastogenesis” value in assay [1] was “effective in inhibiting blastogenesis of the toxins”.
